{"source": "paper PMC5803267", "about": "“A small molecule inhibitor of Rheb selectively targets mTORC1 signaling” (Nature Communications, 2018)", "key": {"[1]": {"tested_on": "S473pAKT (mTORC2 activity) in MCF-7 cells", "experiment": "S473pAKT AlphaLISA assay in MCF-7 cells", "assay_type": "cell-based, human", "settings": "MCF-7, replete conditions, 120 min, dose-dependent", "description": "We next evaluated the activity of NR1 in cell culture. Selective inhibition of mTORC1 in cells produces a specific signaling signature characterized by a reduction in phosphorylation of the mTORC1 substrates S6K1 and 4E-BP1 and increase in phosphorylation of AKT, catalyzed by mTORC2. This distinctive profile reflects the relief of a feedback loop where active S6K1 directly phosphorylates IRS1, resulting in the degradation of IRS1 and subsequent reduction of growth factor signaling from RTKs to downstream effectors such as AKT[1]. Conversely, reduction in ^T389pS6K1 is expected to lead to an increase in ^S473pAKT levels. We used AlphaLISA assays to detect ^T389pS6K1 and ^S473pAKT in MCF-7 cells. […]\nEvaluation of NR1 in MCF-7 under replete conditions. […] The indicated phosphoproteins were detected using AlphaLISA assays for T389pS6K1 (reflecting mTORC1 activity) and S473pAKT (reflecting mTORC2 activity). […]\nThe compounds were added to the kinase reaction mixture by Acoustic technology (Echo550; nanoliter range) and incubated for 20 min at room temperature before the addition of 100 µM 33P-ATP. The reaction was incubated for 2 h at room temperature, and kinase activity was detected by a P81 filter- […]\nAlphaLISA assays. […] The AlphaLISA protocol was performed in 384-well plates as instructed by Perkin Elmer, and the plates were read on an EnVision plate reader. […]"}, "[2]": {"tested_on": "mTORC1 activity (S240/244pS6) in kidney", "experiment": "PD study: feeding-induced mTORC1 activation in kidney", "assay_type": "in vivo, mouse", "settings": "mice fasted 16 h, 30 mg kg^−1 IP, re-fed 2 h", "protocol": "The selective inhibition of mTORC1 activation by NR1 in vitro and in cell-based systems prompted us to evaluate the effect of this compound on mTORC1 activity in vivo. […] In particular, the plasma concentration of NR1 was sustained over 5 µM for 2 h after IP administration of a 30 mg kg^−1 dose (Supplementary Fig. 10). We therefore carried out a pharmacodynamic (PD) study to evaluate the efficacy of NR1 at inhibiting mTORC1 signaling in vivo. In this experiment, mice were starved overnight to achieve a low basal level of mTORC1 activation (pre-dose). After a 16 h fast, the animals were treated with either vehicle or 30 mg kg^−1 NR1 and allowed to re-feed for 2 h before sacrifice and tissue collection. mTORC1 activity was measured by quantification of ^S240/244pS6 by Western blot analysis with a specific antibody. […]\nThis study was conducted in accordance with the requirements for the humane care and use of animals set forth in the Animal Welfare Act, the IACUC Guide for the Care and Use of Laboratory Animals, applicable Shanghai and state laws, and regulations and policies of Shanghai ChemPartner Ltd. The animals were not randomized, and the study was not blinded. […] Compound levels in the plasma of treated mice were measured by LC-MS/MS and compared to a standard curve of compound diluted into mouse plasma. […]"}, "MCF-7 cells": {"tested_on": "MCF-7 cells", "experiment": "Protein synthesis assay (35S-methionine incorporation) in MCF-7 cells", "assay_type": "cell-based, human", "settings": "MCF-7, 2.5 h compound, 35S-Met label 30 min", "protocol": "Data are plotted as percent decrease in forward scatter. […] Error bars represent standard deviation of the mean of duplicates; graph represents data from one of two separate experiments\nAnother functional correlate dependent on mTORC1 activity is protein synthesis. […] The functional effects of NR1 on cell size and protein synthesis are consistent with the observed selective inhibition of mTORC1 pathway signaling.\nThe protein synthesis assay was performed by incubation of MCF7 cells with compounds in MEM + 10% dialyzed FBS for 2.5 h and then incubated in labeling mix (compounds, Met- and Cys-free media, 10% dialyzed FBS, and ^35S protein labeling mix) for 30 min. Cells were lysed, proteins were precipitated, and resuspended pellets were read on a Microbeta 2."}}}
{"smiles": "CN(C)C(=O)c1ccc(Cn2c(C(=O)O)cc3c(Br)cc(Sc4ccc(Cl)c(Cl)c4)cc32)cc1", "note": "[NR1, 4-bromo-6-(3,4-dichlorophenylthio)-1-(4-(dimethylcarbamoyl)benzyl)-1H-indole-2-carboxylic acid]", "values": [{"measurement": "phosphorylation of S473pAKT", "setting": "[1]", "value": "increased the phosphorylation"}, {"measurement": "mTORC1 activity (S240/244pS6) in kidney versus vehicle", "setting": "[2]", "value": "significantly reduced mTORC1 activity"}, {"measurement": "protein synthesis", "setting": "MCF-7 cells", "value": "dose-dependently reduce protein synthesis"}]}
